Tested on: naive CD4+CD25− T cells
Test: In vitro induction of iTregs by DCreg with cytokine blockade
Type: cell-based, mice
Conditions: blockade during co-culture (stage 1)
Procedure: In vitro T cell priming assays. To generate CD4^+CD25^−Foxp3^+ cells in vitro, Naive CD11c^+ dendritic cells (2×10^5) were cultured in 6-well, and stimulated with pVAX-Derp1 (10 μg/ml) plus Derp1 peotein (10 μg/ml) in the present of anti-IL10 or TGF-β for 48 hrs. Three groups of dendritic cells pretreated were added to culture medium with naive CD4^+CD25^− T cells (1×10^6) in RPMI 1640 each 48 hrs for 3 times. And then GFP expression in CD4^+CD25^− T cells were analyzed by FACS. To check the roles of cytokines during DCreg induce iTregs, we co-cultured CD11c^+ DC pretreated with pVAX-Derp1 (10 μg/ml) plus Derp1 peotein (10 μg/ml) with naive T cells, synchronously, plus anti-IL-10, anti-TGF-β or TGF-β receptor inhibitor, SB-525334 (14.3 nM) each 48 hrs for 3 times. […]
As reported, blockade of TGF-β and IL-10 could demolish the development and suppressive function of iTregs. […] The roles of TGF-β and IL-10 were detected during the induction of iTregs by DCreg in vitro. GFP expression in CD4^+CD25^− T cells was detected after 72 hrs of co-culture with CD11C^+ DCreg 3 times each two days in the presence of anti-IL-10 or anti-TGF-β as stage 1 in FIG. 13A. […]

## Cc1cccc(-c2[nH]c(C(C)(C)C)nc2-c2ccc3nccnc3c2)n1 [SB-525334]
  generation of CD4+CD25−GFP+ iTregs by DCreg: could decrease the iTreg induction
